No end group written: not given here.
Columns and labels:
[1] = tested on: adenylate cyclase in SaOS-2 intact cells; assay: Adenylate cyclase assay in SaOS-2 intact cells; assay type: cell-based, human; details: 15° C., 60 min
Protocol: Adenylate cyclase-stimulating activity was examined in confluent SAOS-2 cells as previously described for ROS 17/2.8 cells (Merendino et al., Science 231:388-390, (1986)), with the following modification. The intact cell assay was conducted at 15° C., the same conditions employed for binding to intact SaOS-2 cells (vide supra). […] Dose response curves for each peptide were thus generated using 60 min incubations at 15° C. under binding assay conditions.
(§1) Statistical differences were assessed by paired and unpaired two-tailed Student's t test.

[2] = tested on: adenylate cyclase in SaOS-2 membranes; assay: Adenylate cyclase assay in SaOS-2 cell membranes; assay type: biochemical, human; details: 30° C., 30 min
Protocol: Therefore, dose response curves for each peptide were generated at 30° C. for 10 min in human kidney and 30° C. for 30 min in SaOS-2 membranes. As with the intact cell adenylate cyclase assays, kidney and bone cell membrane adenlyate cyclase assays were performed under binding assay conditions. Results are expresses as percentage of maximal cAMP stimulation in order to compare peptide dose responses from different experiments.
as §1

[3] = tested on: patients with osteoporosis; details: cited from earlier work; for increase in lumbar spine bone mineral density: two to three years of administration
[4] = target: T1, PTH/PTHrP receptors in SaOS-2 membranes (Homo sapiens, UniProt Q03431); assay: Competition binding of 125I-(Tyr36)hPTHrP-(1-36)NH2 to SaOS-2 membranes; details: 30° C., 60 min
T1 sequence (Q03431 27-593): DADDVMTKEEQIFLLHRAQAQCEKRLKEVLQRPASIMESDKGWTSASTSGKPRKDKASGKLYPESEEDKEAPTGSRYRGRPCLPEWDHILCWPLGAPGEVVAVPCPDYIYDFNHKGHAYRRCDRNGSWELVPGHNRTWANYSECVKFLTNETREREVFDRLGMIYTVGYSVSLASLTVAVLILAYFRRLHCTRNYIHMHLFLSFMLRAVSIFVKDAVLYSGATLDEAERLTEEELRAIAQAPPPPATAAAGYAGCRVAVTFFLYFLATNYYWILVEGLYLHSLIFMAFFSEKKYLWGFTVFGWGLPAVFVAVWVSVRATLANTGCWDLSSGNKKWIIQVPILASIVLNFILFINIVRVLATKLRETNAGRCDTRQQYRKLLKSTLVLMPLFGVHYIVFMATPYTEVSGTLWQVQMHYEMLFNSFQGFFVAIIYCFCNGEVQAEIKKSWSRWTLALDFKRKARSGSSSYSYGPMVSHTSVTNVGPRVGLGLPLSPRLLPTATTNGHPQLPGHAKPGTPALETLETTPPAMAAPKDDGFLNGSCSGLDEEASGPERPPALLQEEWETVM
Protocol: Briefly, postconfluent cells in 150 cm^2 flasks were scraped into membrane buffer [10 mM Tris HCl (pH 7.5), 0.2 mM MgCl2, 0.5 mM EGTA, 1 mM dithiothreitol, leupeptin 45 μg/ml, pepstatin 5 μg/ml, aprotinin 10 KIU/ml, and phenylmethane sulfanyl-fluoride 10 μg/ml] at 0° C. Cell disruption was achieved by sonification and the suspension was centrifuged at 13,000×g for 15 min at 4° C. […] The suspension was layered onto a cushion of the membrane buffer containing 45% sucrose and centrifuged at 70,000×g for 30 min at 4° C. […] Protein concentrations were determined by the method of Lowry using BSA as standard.
The binding assay for SaOS-2 membranes was conducted as for human RCM. Membranes were added to a final concentration of 112.5 μg/ml and specific binding reached equilibrium by 60 min at 30° C.

[5] = target: T2, PTH/PTHrP receptors in human renal cortical membranes (RCM) (Homo sapiens, UniProt Q03431); assay: Competition binding of 125I-(Tyr36)hPTHrP-(1-36)NH2 to human renal cortical membranes; details: human RCM, 30° C., 30 min; read-out: Binding (IC50) Kidney membranes
T2 sequence (Q03431 27-593): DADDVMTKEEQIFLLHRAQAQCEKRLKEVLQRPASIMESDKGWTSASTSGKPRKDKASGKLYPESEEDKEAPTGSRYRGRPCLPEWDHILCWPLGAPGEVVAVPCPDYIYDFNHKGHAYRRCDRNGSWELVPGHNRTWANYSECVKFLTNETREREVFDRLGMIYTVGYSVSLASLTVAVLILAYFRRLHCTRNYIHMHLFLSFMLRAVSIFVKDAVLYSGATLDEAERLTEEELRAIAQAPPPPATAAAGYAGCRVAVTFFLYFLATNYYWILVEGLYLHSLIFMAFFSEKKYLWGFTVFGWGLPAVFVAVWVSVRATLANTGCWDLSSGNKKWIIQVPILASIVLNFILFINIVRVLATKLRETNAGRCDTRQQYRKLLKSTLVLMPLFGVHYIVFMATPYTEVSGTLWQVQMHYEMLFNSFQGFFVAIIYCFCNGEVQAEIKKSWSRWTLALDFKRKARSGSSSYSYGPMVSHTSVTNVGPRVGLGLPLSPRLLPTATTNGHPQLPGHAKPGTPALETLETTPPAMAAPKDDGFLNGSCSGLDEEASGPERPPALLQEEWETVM
Protocol: All steps were performed in the presence of the following protease inhibitors: aprotinin [10 Kallikrein inhibitor units (KIU/ml], pepstatin (5 μg/ml), leupeptin (45 μg/ml), and phenylmethanesulfanylfluoride (10 μg/ml). Normal human kidney cortex was from four separate nephrectomy specimens removed for localized transitional cell carcinoma, renal cell carcinoma, or benign cysts. Renal function in all individuals was normal as assessed by serum creatinine and pyelography. Membranes were pooled, aliquoted, and stored at −70° C. for later use.
Human RCM were added to a final concentration of 90 μg/ml. […] The incubation time of 30 min was used for subsequent equilibrium binding competition studies.
as §1

Molecule: CCCC[C@H](NC(=O)[C@H](CO)NC(=O)[C@H](CC(N)=O)NC(=O)[C@H](CC(C)C)NC(=O)[C@H](Cc1c[nH]cn1)NC(=O)[C@H](CCCCN)NC(=O)CNC(=O)[C@H](CC(C)C)NC(=O)[C@H](CC(N)=O)NC(=O)[C@H](Cc1c[nH]cn1)NC(=O)[C@H](CCCC)NC(=O)[C@H](CC(C)C)NC(=O)[C@H](CCC(N)=O)NC(=O)[C@@H](NC(=O)[C@H](CCC(=O)O)NC(=O)[C@H](CO)NC(=O)[C@@H](NC(=O)[C@@H](N)CO)C(C)C)[C@@H](C)CC)C(=O)N[C@@H](CCC(=O)O)C(=O)N[C@@H](CCCNC(=N)N)C(=O)N[C@H](C(=O)N[C@@H](CCC(=O)O)C(=O)N[C@@H](Cc1c[nH]c2ccccc12)C(=O)N[C@@H](CC(C)C)C(=O)N[C@@H](CCCNC(=N)N)C(=O)N[C@@H](CCCCN)C(=O)N[C@@H](CCCCN)C(=O)N[C@@H](CC(C)C)C(=O)N[C@@H](CCC(N)=O)C(=O)N[C@@H](CC(=O)O)C(=O)N[C@H](C(=O)N[C@@H](Cc1c[nH]cn1)C(=O)N[C@@H](CC(N)=O)C(=O)N[C@@H](Cc1ccc(O)cc1)C(=O)O)C(C)C)C(C)C [(Nle^8,18Tyr^34)hPTH-(1-34), (Nle^8,18, Tyr^34)hPTH-(1-34)]
- EC50 [1]: 2.3 ± 0.4 nM
- EC50 [2]: 1.9 ± 0.4 nM

Molecule: CC(C)C[C@H](NC(=O)[C@H](CCCCN)NC(=O)CNC(=O)[C@H](CC(C)C)NC(=O)[C@@H](NC(=O)[C@@H]1CSSC[C@H](N)C(=O)N[C@@H](CO)C(=O)N[C@@H](CC(N)=O)C(=O)N[C@@H](CC(C)C)C(=O)N[C@@H](CO)C(=O)N[C@@H]([C@@H](C)O)C(=O)N1)C(C)C)C(=O)N[C@@H](CO)C(=O)N[C@@H](CCC(N)=O)C(=O)N[C@@H](CCC(=O)O)C(=O)N[C@@H](CC(C)C)C(=O)N[C@@H](Cc1c[nH]cn1)C(=O)N[C@@H](CCCCN)C(=O)N[C@@H](CC(C)C)C(=O)N[C@@H](CCC(N)=O)C(=O)N[C@H](C(=O)N[C@@H](Cc1ccc(O)cc1)C(=O)N1CCC[C@H]1C(=O)N[C@@H](CCCNC(=N)N)C(=O)N[C@H](C(=O)N[C@@H](CC(N)=O)C(=O)N[C@H](C(=O)NCC(=O)N[C@@H](CO)C(=O)NCC(=O)N[C@H](C(=O)N1CCC[C@H]1C(N)=O)[C@@H](C)O)[C@@H](C)O)[C@@H](C)O)[C@@H](C)O [calcitonin]
- increase in lumbar spine bone mineral density [3]: ~2%

Molecule: [Ca+2] [calcium]
- increase in lumbar spine bone mineral density [3]: ~2%

Molecule: O=C(c1ccc(OCCN2CCCCC2)cc1)c1c(-c2ccc(O)cc2)sc2cc(O)ccc12 [raloxifene]
- increase in lumbar spine bone mineral density [3]: ~3%

Molecule: AVSEHQLLHDKGKSIQDLRRRIFLQNLIEGVNTAEY-NH2 [(Tyr^36)cPTHrP-(1-36)NH2, (Tyr^36) chicken (c)PTHrP-(1-36)amide]
- IC50 [4]: 1.1 ± 0.3 nM
- IC50 [5]: 0.47 ± 0.22 nM

Molecule: PTH(1-84)
- hypercalcemia, serum calcium ([3]; doses of approximately 40 micrograms): up to 15 mg/dl
